Assay results published in ChEMBL document CHEMBL3885861, “Open TG-GATES”.

Species on record: Rattus norvegicus
Assay: Open TG-GATES - Regimen: Single
Assay type: toxicity, organism-based, Sprague-Dawley
Design: regimen Single, gender Male, age 6 weeks
Details: in vivo, iv, route intravenous injection; for KIDNEY_L / KIDNEY_R / KIDNEY_TOTAL: tissue Kidney; for LIVER: tissue Liver; for ALP / ALT / AST / CRE / DBIL / GLC / IP / K / LDH / PL / RALB / TBIL / TC / TG / TP / gamma-GTP / BUN: tissue Plasma
[1] = 10 mg/kg, 3 h, tissue Blood, dose level Low
[2] = 10 mg/kg, 6 h, tissue Blood, dose level Low
[3] = 10 mg/kg, 9 h, tissue Blood, dose level Low
[4] = 10 mg/kg, 24 h, tissue Blood, dose level Low
[5] = 30 mg/kg, 3 h, tissue Blood, dose level Middle

GENTAMICIN
Lym [1]: 78.8%
MCH [1]: 21.8 pg
MCHC [1]: 34.1%
MCV [1]: 64 fL
Mono [1]: 3%
Neu [1]: 17%
PT [1]: 16.2 s
Plat [1]: 121.8 x10_4/uL
RBC [1]: 595.2 x10_4/ul
Ret [1]: 7.2%
WBC [1]: 114 x10_2/uL
KIDNEY_L (10 mg/kg, 3 h, dose level Low): 0.9 g
KIDNEY_R (10 mg/kg, 3 h, dose level Low): 1 g
KIDNEY_TOTAL (10 mg/kg, 3 h, dose level Low): 1.9 g
LIVER (10 mg/kg, 3 h, dose level Low): 9.7 g
ALP (10 mg/kg, 3 h, dose level Low): 1674.8 IU/L
ALT (10 mg/kg, 3 h, dose level Low): 40.6 IU/L
AST (10 mg/kg, 3 h, dose level Low): 72.8 IU/L
CRE (10 mg/kg, 3 h, dose level Low): 0.2 mg/dL
DBIL (10 mg/kg, 3 h, dose level Low): 0.002 mg/dL
GLC (10 mg/kg, 3 h, dose level Low): 181.2 mg/dL
IP (10 mg/kg, 3 h, dose level Low): 7.8 mg/dL
K (10 mg/kg, 3 h, dose level Low): 4.2 meq/L
LDH (10 mg/kg, 3 h, dose level Low): 188 IU/L
PL (10 mg/kg, 3 h, dose level Low): 131.8 mg/dL
RALB (10 mg/kg, 3 h, dose level Low): 2.9 g/dL
TBIL (10 mg/kg, 3 h, dose level Low): 0.018 mg/dL
TC (10 mg/kg, 3 h, dose level Low): 66.6 mg/dL
TG (10 mg/kg, 3 h, dose level Low): 91.4 mg/dL
TP (10 mg/kg, 3 h, dose level Low): 5.3 g/dL
gamma-GTP (10 mg/kg, 3 h, dose level Low): 1.4 IU/L
TERMINAL_BW (10 mg/kg, 6 h, dose level Low): 207.8 g
APTT [2]: 23.6 s
Bas [2]: 0%
Eos [2]: 0.8%
Fbg [2]: 282.6 mg/dL
Ht [2]: 39.5%
Lym [2]: 83%
MCH [2]: 21 pg
Mono [2]: 2.8%
PT [2]: 15.9 s
Plat [2]: 131.7 x10_4/uL
RBC [2]: 634.2 x10_4/ul
Ret [2]: 6.8%
WBC [2]: 102.7 x10_2/uL
KIDNEY_L (10 mg/kg, 6 h, dose level Low): 0.9 g
KIDNEY_R (10 mg/kg, 6 h, dose level Low): 0.9 g
KIDNEY_TOTAL (10 mg/kg, 6 h, dose level Low): 1.8 g
LIVER (10 mg/kg, 6 h, dose level Low): 8.7 g
ALP (10 mg/kg, 6 h, dose level Low): 1173 IU/L
ALT (10 mg/kg, 6 h, dose level Low): 36.4 IU/L
AST (10 mg/kg, 6 h, dose level Low): 68.8 IU/L
CRE (10 mg/kg, 6 h, dose level Low): 0.2 mg/dL
DBIL (10 mg/kg, 6 h, dose level Low): 0.002 mg/dL
GLC (10 mg/kg, 6 h, dose level Low): 175 mg/dL
IP (10 mg/kg, 6 h, dose level Low): 9.1 mg/dL
K (10 mg/kg, 6 h, dose level Low): 4.3 meq/L
LDH (10 mg/kg, 6 h, dose level Low): 216.2 IU/L
PL (10 mg/kg, 6 h, dose level Low): 139.6 mg/dL
RALB (10 mg/kg, 6 h, dose level Low): 3 g/dL
TBIL (10 mg/kg, 6 h, dose level Low): 0.022 mg/dL
TC (10 mg/kg, 6 h, dose level Low): 77.6 mg/dL
TG (10 mg/kg, 6 h, dose level Low): 74.8 mg/dL
TP (10 mg/kg, 6 h, dose level Low): 5.4 g/dL
gamma-GTP (10 mg/kg, 6 h, dose level Low): 1.6 IU/L
TERMINAL_BW (10 mg/kg, 9 h, dose level Low): 208.7 g
APTT [3]: 23.8 s
Bas [3]: 0%
Eos [3]: 0.8%
Fbg [3]: 317.6 mg/dL
Ht [3]: 39.5%
Lym [3]: 80.6%
MCHC [3]: 33.4%
Mono [3]: 3.2%
PT [3]: 16.2 s
Plat [3]: 125.8 x10_4/uL
RBC [3]: 642.4 x10_4/ul
Ret [3]: 6.1%
WBC [3]: 90.1 x10_2/uL
KIDNEY_L (10 mg/kg, 9 h, dose level Low): 1 g
KIDNEY_R (10 mg/kg, 9 h, dose level Low): 1 g
KIDNEY_TOTAL (10 mg/kg, 9 h, dose level Low): 1.9 g
LIVER (10 mg/kg, 9 h, dose level Low): 8.2 g
ALP (10 mg/kg, 9 h, dose level Low): 1357 IU/L
AST (10 mg/kg, 9 h, dose level Low): 66.4 IU/L
BUN (10 mg/kg, 9 h, dose level Low): 11 mg/dL
CRE (10 mg/kg, 9 h, dose level Low): 0.1 mg/dL
DBIL (10 mg/kg, 9 h, dose level Low): 0.004 mg/dL
GLC (10 mg/kg, 9 h, dose level Low): 180.6 mg/dL
IP (10 mg/kg, 9 h, dose level Low): 8.9 mg/dL
K (10 mg/kg, 9 h, dose level Low): 4.2 meq/L
LDH (10 mg/kg, 9 h, dose level Low): 120.2 IU/L
PL (10 mg/kg, 9 h, dose level Low): 128 mg/dL
RALB (10 mg/kg, 9 h, dose level Low): 3 g/dL
TBIL (10 mg/kg, 9 h, dose level Low): 0.026 mg/dL
TC (10 mg/kg, 9 h, dose level Low): 69 mg/dL
TG (10 mg/kg, 9 h, dose level Low): 56 mg/dL
TP (10 mg/kg, 9 h, dose level Low): 5.4 g/dL
gamma-GTP (10 mg/kg, 9 h, dose level Low): 1 IU/L
TERMINAL_BW (10 mg/kg, 24 h, dose level Low): 226 g
APTT [4]: 23.6 s
Bas [4]: 0%
Eos [4]: 0.8%
Fbg [4]: 300.6 mg/dL
Ht [4]: 38.7%
Lym [4]: 80.4%
MCHC [4]: 34%
MCV [4]: 61.6 fL
Mono [4]: 3.2%
Plat [4]: 126.1 x10_4/uL
RBC [4]: 628.8 x10_4/ul
Ret [4]: 6.2%
WBC [4]: 119.3 x10_2/uL
KIDNEY_L (10 mg/kg, 24 h, dose level Low): 1 g
KIDNEY_R (10 mg/kg, 24 h, dose level Low): 1 g
KIDNEY_TOTAL (10 mg/kg, 24 h, dose level Low): 1.9 g
LIVER (10 mg/kg, 24 h, dose level Low): 10.2 g
ALP (10 mg/kg, 24 h, dose level Low): 1490.2 IU/L
ALT (10 mg/kg, 24 h, dose level Low): 37.8 IU/L
AST (10 mg/kg, 24 h, dose level Low): 68.2 IU/L
BUN (10 mg/kg, 24 h, dose level Low): 16.6 mg/dL
CRE (10 mg/kg, 24 h, dose level Low): 0.2 mg/dL
DBIL (10 mg/kg, 24 h, dose level Low): 0 mg/dL
IP (10 mg/kg, 24 h, dose level Low): 6.4 mg/dL
K (10 mg/kg, 24 h, dose level Low): 4.5 meq/L
LDH (10 mg/kg, 24 h, dose level Low): 171.6 IU/L
PL (10 mg/kg, 24 h, dose level Low): 139.2 mg/dL
RALB (10 mg/kg, 24 h, dose level Low): 2.9 g/dL
TBIL (10 mg/kg, 24 h, dose level Low): 0.01 mg/dL
TC (10 mg/kg, 24 h, dose level Low): 69.4 mg/dL
TG (10 mg/kg, 24 h, dose level Low): 100 mg/dL
TP (10 mg/kg, 24 h, dose level Low): 5.4 g/dL
gamma-GTP (10 mg/kg, 24 h, dose level Low): 1.2 IU/L
TERMINAL_BW (30 mg/kg, 3 h, dose level Middle): 214 g
APTT [5]: 23.2 s
Bas [5]: 0%
Eos [5]: 1%
Fbg [5]: 287.4 mg/dL
Ht [5]: 39.3%
Lym [5]: 79%
MCHC [5]: 34%
